Measured values taken from ChEMBL document CHEMBL3885861, “Open TG-GATES”.

Species: Rattus norvegicus
Assay: Open TG-GATES - Regimen: Single
Type: toxicity, organism-based, Sprague-Dawley
Parameters: regimen Single, gender Male, age 6 weeks
Settings: in vivo, po, 100 mg/kg, route gavage, dose level Low; for APTT / Bas / Eos / Fbg / Hb / Ht / Lym / MCH / MCHC / MCV / Mono / Neu / PT / Plat / RBC / Ret / WBC: tissue Blood; for KIDNEY_L / KIDNEY_R / KIDNEY_TOTAL: tissue Kidney; for LIVER: tissue Liver; for A/G / ALP / ALT / AST / BUN / CRE / Ca / Cl / DBIL / GLC / IP / K / LDH / Na / PL / RALB / TBIL / TC / TG / TP / gamma-GTP: tissue Plasma

## COc1ccc(Cl)cc1C(=O)NCCc1ccc(S(=O)(=O)NC(=O)NC2CCCCC2)cc1 [GLYBURIDE]
3 h
  TERMINAL_BW: 218.6 g
  APTT: 19.3 s
  Bas: 0%
  Eos: 1%
  Fbg: 215.8 mg/dL
  Hb: 13.2 g/dL
  Ht: 41%
  Lym: 69.8%
  MCH: 20.2 pg
  MCHC: 32.3%
  MCV: 62.6 fL
  Mono: 2.8%
  Neu: 25.4%
  PT: 12.3 s
  Plat: 125.3 x10_4/uL
  RBC: 654.4 x10_4/ul
  Ret: 8.1%
  WBC: 93.1 x10_2/uL
  KIDNEY_L: 0.9 g
  KIDNEY_R: 1 g
  KIDNEY_TOTAL: 1.9 g
  LIVER: 9.7 g
  A/G: 1.6
  ALP: 990.2 IU/L
  ALT: 44.4 IU/L
  AST: 69.4 IU/L
  BUN: 12.8 mg/dL
  CRE: 0.4 mg/dL
  Ca: 10.7 mg/dL
  Cl: 103 meq/L
  DBIL: 0.1 mg/dL
  GLC: 141 mg/dL
  IP: 8.2 mg/dL
  K: 3.7 meq/L
  LDH: 145.6 IU/L
  Na: 140.8 meq/L
  PL: 174.8 mg/dL
  RALB: 3.5 g/dL
  TBIL: 0.2 mg/dL
  TC: 89.8 mg/dL
  TG: 87 mg/dL
  TP: 5.7 g/dL
  gamma-GTP: 1.4 IU/L
6 h
  TERMINAL_BW: 214.4 g
  APTT: 19.6 s
  Bas: 0%
  Eos: 0.8%
  Fbg: 222.6 mg/dL
  Hb: 13.9 g/dL
  Ht: 42.5%
  Lym: 76.2%
  MCH: 20.6 pg
  MCHC: 32.6%
  MCV: 63.3 fL
  Mono: 2.8%
  Neu: 18.8%
  PT: 12.7 s
  Plat: 118.8 x10_4/uL
  RBC: 671.8 x10_4/ul
  Ret: 7.8%
  WBC: 101.9 x10_2/uL
  KIDNEY_L: 0.9 g
  KIDNEY_R: 0.9 g
  KIDNEY_TOTAL: 1.8 g
  LIVER: 9.3 g
  A/G: 1.7
  ALP: 837 IU/L
  ALT: 40.2 IU/L
  AST: 67.4 IU/L
  BUN: 13 mg/dL
  CRE: 0.4 mg/dL
  Ca: 10.7 mg/dL
  Cl: 104.4 meq/L
  DBIL: 0.098 mg/dL
  GLC: 168.6 mg/dL
  IP: 8.6 mg/dL
  K: 3.8 meq/L
  LDH: 136 IU/L
  Na: 141.8 meq/L
  PL: 145.2 mg/dL
  RALB: 3.5 g/dL
  TBIL: 0.2 mg/dL
  TC: 72.2 mg/dL
  TG: 64.8 mg/dL
  TP: 5.6 g/dL
  gamma-GTP: 1.2 IU/L
9 h
  TERMINAL_BW: 211.4 g
  APTT: 19.7 s
  Bas: 0%
  Eos: 1%
  Fbg: 223.4 mg/dL
  Hb: 13.4 g/dL
  Ht: 41.4%
  Lym: 79.8%
  MCH: 20.5 pg
  MCHC: 32.5%
  MCV: 63.2 fL
  Mono: 3%
  Neu: 15.6%
  PT: 12.9 s
  Plat: 122.6 x10_4/uL
  RBC: 654.8 x10_4/ul
  Ret: 8.2%
  WBC: 77.5 x10_2/uL
  KIDNEY_L: 0.9 g
  KIDNEY_R: 0.9 g
  KIDNEY_TOTAL: 1.9 g
  LIVER: 8.7 g
  A/G: 1.6
  ALP: 982.4 IU/L
  ALT: 30.2 IU/L
  AST: 69.2 IU/L
  BUN: 12.4 mg/dL
  CRE: 0.4 mg/dL
  Ca: 10.3 mg/dL
  Cl: 104.2 meq/L
  DBIL: 0.084 mg/dL
  GLC: 153.8 mg/dL
  IP: 10.4 mg/dL
  K: 3.4 meq/L
  LDH: 136.6 IU/L
  Na: 142.4 meq/L
  PL: 143 mg/dL
  RALB: 3.4 g/dL
  TBIL: 0.1 mg/dL
  TC: 79.6 mg/dL
  TG: 42 mg/dL
  TP: 5.6 g/dL
  gamma-GTP: 1 IU/L
24 h
  TERMINAL_BW: 227.7 g
  APTT: 18.4 s
  Bas: 0.4%
  Eos: 1%
  Fbg: 211.8 mg/dL
  Hb: 13 g/dL
  Ht: 37.6%
  Lym: 76.8%
  MCH: 21.7 pg
  MCHC: 34.5%
  MCV: 62.9 fL
  Mono: 3.2%
  Neu: 18.8%
  PT: 13.1 s
  Plat: 119.3 x10_4/uL
  RBC: 599 x10_4/ul
  Ret: 7.1%
  WBC: 83.2 x10_2/uL
  KIDNEY_L: 1 g
  KIDNEY_R: 0.9 g
  KIDNEY_TOTAL: 1.9 g
  LIVER: 9.5 g
  A/G: 1.7
  ALP: 950.8 IU/L
  ALT: 35.4 IU/L
  AST: 68.4 IU/L
  BUN: 14.6 mg/dL
  CRE: 0.4 mg/dL
  Ca: 10.7 mg/dL
  Cl: 103.4 meq/L
  DBIL: 0.09 mg/dL
  GLC: 212.4 mg/dL
  IP: 7.9 mg/dL
  K: 3.5 meq/L
  LDH: 174.2 IU/L
  Na: 142.2 meq/L
  PL: 136 mg/dL
  RALB: 3.4 g/dL
  TBIL: 0.1 mg/dL
  TC: 72.2 mg/dL
  TG: 67.4 mg/dL
  TP: 5.4 g/dL
  gamma-GTP: 1.4 IU/L
